Assay [1] concerns the target T1, Transient receptor potential cation channel subfamily V member 1 (Rattus norvegicus, UniProt O35433). As to the kind of experiment: Agonist activity by [Ca2+] uptake in CHO cells expressing rat TRPV1 at 10-30 uM; WE = Weakly effective. It counts as functional, cell-based.
For assay [2], the target named is T1, Transient receptor potential cation channel subfamily V member 1. As to the kind of experiment: Antagonist activity for rat TRPV1 expressed in CHO cells; Weakly effective. It counts as functional, cell-based.
Assay [3] shares this target. As to the kind of experiment: In vitro binding affinity for rat TRPV1 expressed in CHO cells using [3H]-RTX. It counts as cell-based.
The target is the same in assay [4]. Briefly: Antagonist activity for rat TRPV1 expressed in CHO cells. The class given is functional, cell-based.
Assay [5] has the same target. Briefly: Agonist activity by 300 nM capsaicin induced [Ca2+] uptake in CHO cells expressing rat TRPV1 at 10-30 uM; NE = Not effective. It counts as functional, cell-based.
The target is the same in assay [6]. As to the kind of experiment: Agonist activity by 300 nM capsaicin induced [Ca2+] uptake in CHO cells expressing rat TRPV1 at 10-30 uM; WE = Weakly effective. It counts as functional, cell-based.
Assay [7] has the same target. As to the kind of experiment: Agonist activity by [Ca2+] uptake in CHO cells expressing rat TRPV1 at 10-30 uM; NE = Not effective. The class given is functional, cell-based.
The target is the same in assay [8]. As to the kind of experiment: Antagonist activity for rat TRPV1 expressed in CHO cells; Not effective. It counts as functional, cell-based.
Assay [9] shares this target. As to the kind of experiment: Agonist activity by [Ca2+] uptake in CHO cells expressing rat TRPV1 at 10-30 uM. It counts as functional, cell-based.
For assay [10] the target is unchanged. Briefly: In vitro binding affinity for rat TRPV1 expressed in CHO cells using [3H]RTX; Not effective. It counts as cell-based.

T1 sequence (O35433 whole entry): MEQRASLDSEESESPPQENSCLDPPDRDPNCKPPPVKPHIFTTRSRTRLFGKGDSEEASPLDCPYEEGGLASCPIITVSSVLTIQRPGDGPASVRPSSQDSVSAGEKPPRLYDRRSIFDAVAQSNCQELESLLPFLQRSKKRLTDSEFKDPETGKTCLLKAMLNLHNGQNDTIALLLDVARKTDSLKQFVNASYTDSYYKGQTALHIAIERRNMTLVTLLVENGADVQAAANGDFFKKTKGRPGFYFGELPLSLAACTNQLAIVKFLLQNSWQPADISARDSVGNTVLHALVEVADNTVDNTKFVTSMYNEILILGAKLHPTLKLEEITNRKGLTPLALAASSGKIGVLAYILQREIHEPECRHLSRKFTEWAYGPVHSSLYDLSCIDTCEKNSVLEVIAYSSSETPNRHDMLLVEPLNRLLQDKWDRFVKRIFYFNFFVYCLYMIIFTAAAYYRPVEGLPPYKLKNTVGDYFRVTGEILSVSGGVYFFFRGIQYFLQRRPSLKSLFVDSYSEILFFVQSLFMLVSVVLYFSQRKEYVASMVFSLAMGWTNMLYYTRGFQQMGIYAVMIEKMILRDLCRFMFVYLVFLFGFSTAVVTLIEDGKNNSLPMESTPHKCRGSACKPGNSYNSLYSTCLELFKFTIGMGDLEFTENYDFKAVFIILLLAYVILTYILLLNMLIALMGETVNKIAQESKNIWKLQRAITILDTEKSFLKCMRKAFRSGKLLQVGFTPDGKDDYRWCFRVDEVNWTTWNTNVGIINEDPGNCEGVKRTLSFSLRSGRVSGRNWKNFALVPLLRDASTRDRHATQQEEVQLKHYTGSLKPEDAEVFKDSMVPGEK

What is called EC50 is the concentration at which the effect is half-maximal. As a reminder, the Ki is a measure of affinity in units of concentration, obtained from inhibition or displacement. Take `CC(C)(C)c1ccc(C/N=C(\S)NCc2ccc(NS(N)(=O)=O)cc2)cc1`: in assay [1], the EC50 result is given as “Partial agonist”. Further, the Ki result in [2] was “Partial antagonist”; in assay [3], 650 nM.

Turning to `CC(C)(C)c1ccc(C/N=C(\S)NCc2ccc(NS(=O)(=O)CCN=[N+]=[N-])cc2)cc1`, the values for the Ki in assay [4] and in assay [3] were 231 nM and 145 nM, respectively. For the same compound, in assay [5], the EC50 entry is reported as “Not Active”.

For `CC(C)(C)c1ccc(C/N=C(\S)NCCc2ccc(NS(C)(=O)=O)cc2)cc1`, the Ki in assay [4] was 699 nM; in [3], 3900 nM. Further, the EC50 result in assay [6] (cho) was “Partial agonist”.

Turning to `CC(C)(C)c1ccc(C/N=C(\S)NCc2ccc(NS(C)(=O)=O)cn2)cc1`, the affinity in assay [4], expressed as Ki, was 4100 nM. For the same compound, in [7] (cho), the concentration for a half-maximal effect (EC50) entry was “Not Active”.

Turning to `CC(C)(C)c1ccc(C/N=C(\S)NCc2ccc(NS(C)(=O)=O)c(O)c2)cc1`, the EC50 entry in assay [1] was “Partial agonist”. Also, the Ki entry in assay [2] was “Partial antagonist”; in assay [3], 750 nM.

Take `CSc1cccc(C/N=C(\S)NCc2ccc(C(C)(C)C)cc2)c1`: the EC50 entry in [6] (cho) is “Partial agonist”. Further, the inhibition constant Ki is 580 nM in assay [3] and “Not Active” in [8].

In the case of `CC(C)(C)c1ccc(C/N=C(\S)NCc2ccc(CNS(C)(=O)=O)cc2)cc1`, the response in assay [9] was half-maximal at 1720 nM (EC50). In assay [8], the Ki result is recorded as “Not Active”.

For `CC(C)(C)c1ccc(C/N=C(\S)NCc2ccc(NS(C)(=O)=O)c(S(C)(=O)=O)c2)cc1`, the Ki entry in assay [10] and in assay [8] was “Not Active” in each case. In [7] (cho), the EC50 entry is on record as “Not Active”.

As to `CC(C)(C)c1ccc(C/N=C(\S)NCc2ccc(NS(C)(=O)=O)c([N+](=O)[O-])c2)cc1`, the inhibition constant (Ki) in [4] was 610 nM; in [3] it was 1300 nM. Further, the EC50 result in [7] (cho) is given as “Not Active”.

For `CC(C)(C)c1ccc(C/N=C(\S)NCc2cccc(NS(C)(=O)=O)c2)cc1`, the EC50 in assay [7] (read-out: EC50) was found to be 4100 nM. The values for the inhibition constant Ki in assay [3] and in [8] were 6000 nM and “Not Active”, respectively.

Take `CC(C)(C)c1ccc(C/N=C(\S)Nc2ccc(NS(C)(=O)=O)cc2)cc1`: the Ki came out at 6800 nM in assay [4] and 9560 nM in [3]. Moreover, the EC50 result in assay [1] is listed as “Partial agonist”.

In the case of `CC(C)(C)c1ccc(C/N=C(\S)NCc2ccc(NS(C)(=O)=O)cc2Cl)cc1`, the Ki in assay [4] was 45.5 nM; in assay [3], 144 nM. Besides, the EC50 entry in [7] (cho) was “Not Active”.

Regarding `CC(C)Oc1cc(C/N=C(\S)NCc2ccc(C(C)(C)C)cc2)ccc1NS(C)(=O)=O`, the Ki came out at 3600 nM in [4] and 8070 nM in assay [3]. Besides, the EC50 entry in assay [7] (cho) is recorded as “Not Active”.

Turning to `CC(C)(C)c1ccc(CNC(=S)NCc2ccc(NS(C)(=O)=O)cc2)cc1`, the EC50 entry in [7] (cho) is “Not Active”.

Take `COc1cc(CNC(=S)NCc2ccc(C(C)(C)C)cc2)ccc1NS(C)(=O)=O`: the EC50 result in assay [6] (cho) is “Partial agonist”.

With `CC(C)(C)c1ccc(C/N=C(\S)NCc2ccc(NS(C)(=O)=O)c(Cl)c2)cc1`, the Ki in assay [4] stood at 400 nM; in assay [3] it was 1160 nM. In addition, the EC50 entry in assay [5] is “Not Active”.

`CC(C)(C)c1ccc(C/N=C(\S)NCc2ccc(NS(C)(=O)=O)cc2F)cc1`: the figures for the Ki in assay [4] and in [3] were 27.3 nM and 215 nM, respectively. Further, in assay [7] (cho), the EC50 entry is “Not Active”.

Take `CC(C)(C)c1ccc(C/N=C(\S)NCc2cccc(S(C)(=O)=O)c2)cc1`: the EC50 in [6] (read-out: EC50) is 1010 nM. For the same compound, the inhibition constant (Ki) in assay [3] is 1000 nM; in assay [8], “Not Active”.

`CC(C)(C)c1ccc(C/N=C(\S)NCc2ccc(NS(C)(=O)=O)cc2C(F)(F)F)cc1`: the inhibition constant (Ki) in [4] is 119 nM; in [3], 440 nM. Besides, the half-maximal effective concentration (EC50) result in assay [7] (cho) is “Not Active”.

As to `CC(C)(C)c1ccc(C/N=C(\S)NCc2ccc(NS(=O)(=O)CCN)cc2)cc1`, the EC50 result in assay [7] (cho) was “Not Active”. In addition, the results for the Ki result in [2] and in [3] were “Partial antagonist” and 4640 nM, respectively.

Regarding `CC(C)(C)c1ccc(C/N=C(\S)NCc2cnc(NS(C)(=O)=O)cn2)cc1`, the Ki result in [10] and in assay [8] was “Not Active” in each case. The half-maximal effective concentration (EC50) result in [7] (cho) is recorded as “Not Active”.

Take `CC(C)(C)c1ccc(CNC(=S)NCc2ccc(NS(C)(=O)=O)c(F)c2)cc1`: in [7] (cho), the EC50 result is on record as “Not Active”.

On to `C[S+]([O-])c1cccc(C/N=C(\S)NCc2ccc(C(C)(C)C)cc2)c1` (stereo not drawn), for which, in assay [7] (read-out: EC50), the EC50 was found to be 1890 nM. The inhibition constant (Ki) in [3] was 3600 nM; in assay [8], “Not Active”.

Take `CC(C)(C)c1ccc(C/N=C(\S)NCc2ccc(NS(C)(=O)=O)nc2)cc1`: the inhibition constant (Ki) in assay [4] stood at 177 nM; in assay [3], 4100 nM. Further, the EC50 result in assay [7] (cho) is given as “Not Active”.

`C=CS(=O)(=O)Nc1ccc(CN/C(S)=N/Cc2ccc(C(C)(C)C)cc2)cc1` came in with an EC50 in assay [9] of 250 nM. Also, the results for the Ki in [3] and in [8] were 231 nM and “Not Active”, respectively.

With `Oc1cc2c(cc1O)CN(C(=S)NCCc1ccc(Cl)cc1)CCC2` [CAPSAZEPINE], the EC50 result in assay [7] (cho) is recorded as “Not Active”.

The values above are taken from ChEMBL document CHEMBL1142822, “Analysis of structure-activity relationships for the 'A-region' of N-(4-t-butylbenzyl)-N'-[4-(methylsulfonylamino)benzyl]thiourea analogues as TRPV1 antagonists” (Bioorg Med Chem Lett, 2005).
